Results on three molecules are retold here after patent US20240285599A1, “Mature-Hepatocyte Transdifferentiation Suppressing Composition” (OSAKA UNIVERSITY, priority 2021, published 2024).

Series [1] has as its system TRAF3/PTEN knockdown HepG2 cell. The experiment in a line: Cell proliferation assay (IncuCyte) of TRAF3/PTEN knockdown HepG2. Format: cell-based, human. On the procedure:
(§1) Hepatocytes or cholangiocarcinoma cells were inoculated on a 96-well plate, and their cell proliferation was analyzed with IncuCyte (trademark) Si (Sartorius AG, Germany) in accordance with the manufacturer's instructions.
Specifically, 24 hours after the start of the culture of each of the PTKD #1HepG2 and the PTKD #1PHH obtained in Test Example 5, NIKSMI described above was added at a concentration of 9 μM. 48 Hours after that, the cells were recovered, and the mRNA of KRT19 was quantified, followed by immunoblotting.
Specifically, the NIK KD #1 or the NIK KD #2 was transfected into the PTKD #1HepG2 and the PTKD #1PHH obtained in Test Example 5 to provide a PTKDNIK #1 and a PTKDNIK #2, respectively. 72 Hours after the start of the culture of each of the cells, the cell was recovered, and the mRNA of KRT19 was quantified, followed by immunoblotting.
The above-mentioned cell proliferation analysis and the production of the cell growth curves were performed with IncuCyte (trademark).

The test system of series [2] is human cholangiocarcinoma cell line HuCCA1. Nature of the series: Cell proliferation assay (IncuCyte) of cholangiocarcinoma cell line HuCCA1. Format: cell-based. The method, then:
(§2) A human hepatoma cell line HepG2, and human cholangiocarcinoma cell lines HuCCT1, HuCCA1, and KKU213 were obtained from the JCRB Cell Bank. The HepG2 and KKU213 cells were cultured in a Dulbecco's modified Eagle's medium (DMEM; Nacalai Tesque, Inc., Japan) having added thereto 10% heat-inactivated fetal calf serum (FCS; Gibco, USA). The HuCCT1 cells were cultured in an RPMI medium (Nacalai Tesque, Inc., Japan) containing 10% FCS. The HuCCA1 cells were cultured in D-MEM/Ham's F-12 (containing L-glutamine and phenol red) (Wako Pure Chemical Industries, Ltd., Japan) having added thereto 10% FCS. All the cells were cultured with a CO2 incubator at 37° C. The cells were detached with trypsin (Nacalai Tesque, Inc., Japan), and were passaged. Those cells were routinely examined for mycoplasma.
(§3) The transfection of siRNA or a plasmid into cells was performed with Lipofectamine RNAiMAX Transfection Reagent (Thermo Fisher Scientific, Inc., USA) or Lipofectamine 2000 (Thermo Fisher Scientific, Inc., USA), respectively, and with Opti-MEM (Thermo Fisher Scientific, Inc., USA). The transfection of the siRNA was performed as follows: the cells were dispersed at a concentration of 100,000 cells/mL; 10 μM of the siRNA was mixed into 100 μL of the Opti-MEM at a ratio of 1 μL, and the mixture was left at rest for 5 minutes; and then 3 μL of the RNAiMAX was mixed into the mixture, and the whole was left at rest for 15 minutes, followed by administration to the supernatant of the previously dispersed cells. Further, a medium change was performed 24 hours thereafter.
as §1
(§4) Two kinds of NIK siRNA (the NIK KD #1 and the NIK KD #2) were introduced into each of human cholangiocarcinoma cell lines HuCCT1, HuCCA1, and KKU213 to knock down MAP3K14 (NIK). […]

Series [3] deals with human cholangiocarcinoma cell line KKU213. The experiment in a line: Cell proliferation assay (IncuCyte) of cholangiocarcinoma cell line KKU213. The format is cell-based. The method, then: as §2, §3, §1, §4
[4] abbreviates: NIK siRNA transfected, cell growth curve FIG. 14B.

With `COc1cc(C(N)=O)nc(-c2cccc(C#C[C@]3(O)CCN(C)C3=O)c2)c1` [NIKSMI, (R)-6-(3-((3-hydroxy-1-methyl-2-oxopyrrolidin-3-yl)ethynyl)phenyl)-4-methoxypicolinamide], the “increase in proliferation rate of the HepG2 cell by knockdown of TRAF3 and PTEN” value (“increase in proliferation rate” below) in series [1] (NIKSMI 9 μM, cell growth curve FIG. 14A) is reported as “blocked”. Also, the “proliferation of cholangiocarcinoma cells” value was “significantly suppressed” in series [2] (9 μM or 15 μM added at beginning of culture, FIG. 21B) and “significantly suppressed” in series [3] (9 μM or 15 μM added at beginning of culture, FIG. 21C).

For the molecule “NIK KD #2: siRNA of NIK, SEQ ID NO: 4 (sense) and 5 (antisense), from Thermo Fisher Scientific (sense GCAAAGAGCAAGAACCAAAUU; antisense UUUGGUUCUUGCUCUUUGCGU; listed as RNA, chemistry not given here)”, the “increase in proliferation rate” value in series [1] (setting [4]) is listed as “blocked”. For the same molecule, the “proliferation of cholangiocarcinoma cells” value is recorded as “significantly suppressed” in series [2] (NIK siRNA introduced, FIG. 19) and “significantly suppressed” in series [3] (NIK siRNA introduced, FIG. 20).

As for “NIK KD #1: siRNA of NIK, SEQ ID NO: 2 (sense) and 3 (antisense), from Thermo Fisher Scientific (sense CAAACGCAAAGAGCAAGAAUU; antisense UUCUUGCUCUUUGCGUUUGCA; listed as RNA, chemistry not given here)”, the “increase in proliferation rate” value in series [1] (setting [4]) is reported as “blocked”. Moreover, the “proliferation of cholangiocarcinoma cells” value in series [2] (NIK siRNA introduced, FIG. 19) was “significantly suppressed”; in series [3] (NIK siRNA introduced, FIG. 20), “significantly suppressed”.
